Reference: patent US7638510B2, “Use of s-10-hydroxy-10,11-dihydro-carbamazepine for the treatment of anxiety and bipolar disorders” (Novartis AG, priority 2003, dated 2009)

System: rat
Assay: Vogel conflict test (punished drinking)
Type: in vivo
Details: for PUNISHED DRINKING (number of shocks) mean ± s.e.m.: 3 minute period; for PUNISHED DRINKING % change from control: vs vehicle; for efficacy compared between racemate and enantiomers: 50-200 mg/kg p.o.; for efficacy compared with the positive control clobazam: 50-200 mg/kg p.o. vs clobazam 64 mg/kg
Method: a) Description of method: The method, which detects anxiolytic and related other psychiatric activity, follows that described by Vogel et al, Psychopharmacologia 1971; 21:1-7 Anxiolytics and antidepressants (e.g., Fontana et al., Psychopharmacology 1989; 98(2):157-62) of various classes increase punished drinking.
Rats are deprived of water for 48 hours and are then placed individually into a transparent Plexiglas enclosure (15×32×34 cm) with a floor consisting of stainless steel bars (0.4 cm) spaced 1 cm apart The back wall of the enclosure is made of opaque Plexiglass thereby concealing the observer from the experimental animal. In the centre of the opposite wall, 5 cm above the floor, a metal water spout protrudes into the cage and is connected to one pole of a shock generator (Apelex: Type 011346). The other pole of the shock generator is connected to the metal grid floor. The rat is left to explore until it found the water spout. Then, every time it drinks, it receives a slight electric shock (1.7 mA, 1 sec.) 2 seconds after it starts lapping. The number of shocks received (punished drinkings) is counted during a 3 minute period. 15 rats are studied per group. The test is performed blind. Compounds are evaluated at 50, 100 and 200 mg/kg, administered p.o. 60 minutes before the test, and compared with a vehicle control group. Clobazam (64 mg/kg), administered under the same experimental conditions, is used as reference substance. All substances are evaluated within the same experiment and compared with the same vehicle and reference substance controls. Data are analyzed by comparing treated groups with vehicle control using unpaired Student's t tests.

Structure (SMILES) | PUNISHED DRINKING (number of shocks) mean ± s.e.m. (50 mg/kg p.o. -60 min) | PUNISHED DRINKING % change from control (50 mg/kg p.o. -60 min) | PUNISHED DRINKING (number of shocks) mean ± s.e.m. (100 mg/kg p.o. -60 min) | PUNISHED DRINKING % change from control (100 mg/kg p.o. -60 min) | PUNISHED DRINKING (number of shocks) mean ± s.e.m. (200 mg/kg p.o. -60 min) | PUNISHED DRINKING % change from control (200 mg/kg p.o. -60 min) | efficacy compared between racemate and enantiomers | PUNISHED DRINKING (number of shocks) mean ± s.e.m. (64 mg/kg p.o. -60 min) | PUNISHED DRINKING % change from control (64 mg/kg p.o. -60 min) | efficacy compared with the positive control clobazam
NC(=O)N1c2ccccc2CC(O)c2ccccc21 (racemic) [M3, 10-hydroxy-10,11-dihydro-carbamazepine] | 5.9 ± 0.5 number of shocks | +34% | 8.4 ± 1.0 number of shocks | +91% | 10.4 ± 1.5 number of shocks | +136% | between that of the R- and S-enantiomers | – | – | –
CN1C(=O)CC(=O)N(c2ccccc2)c2cc(Cl)ccc21 [CLOBAZAM, Clobazam, reference compound] | – | – | – | – | – | – | – | 8.2 ± 1.1 number of shocks | +86% | –
NC(=O)N1c2ccccc2C[C@@H](O)c2ccccc21 [M4, R(−)-10,11-dihydro-10-hydroxy-5H-dibenzo[b,f]azepine-5-carboxamide] | 5.0 ± 0.4 NS number of shocks | +14% | 5.5 ± 0.5 NS number of shocks | +25% | 7.4 ± 1.3 number of shocks | +68% | less efficacious than the S-enantiomer at the lowest dose used | – | – | less than that of the positive control
NC(=O)N1c2ccccc2C[C@H](O)c2ccccc21 [M5, S(+)-10,11-dihydro-10-hydroxy-5H-dibenzo[b,f]azepine-5-carboxamide] | 8.4 ± 1.3 number of shocks | +91% | 9.5 ± 1.0 number of shocks | +116% | 10.5 ± 1.3 number of shocks | +139% | – | – | – | surpasses that of clobazam at all doses tested
